Molecules are shown by their SMILES. Activity calls are given as the source filed them. No cut-off for these calls is given here. Peptide text beside a SMILES is read from it.

Two molecules from ChEMBL document CHEMBL4354831, “Novel Cell-Penetrating Peptide Conjugated Proteasome Inhibitors: Anticancer and Antifungal Investigations” (J Med Chem, 2020) can be followed below.

The test system of data set [1] is BE(2)-C. Briefly: Induction of ROS generation in human BE(2)-C cells after 24 hrs by DCFH-DA staining based fluorescence analysis. The data set is classed as functional, cell-based.
The target in another data set is 20S proteasome. Briefly: Inhibition of human 20S proteasome using Suc-LLVY-AMC as substrate measured every 5 mins for 120 mins by fluorescence based assay. The data set is classed as protein-complex assay.
The target in data set [2] is T1, 20S proteasome (Homo sapiens) (UniProt P49721+P20618+P28074+P28062+P28065+P28072+P25786+P25787+P25788+P25789+P28066+P60900+O14818+Q8TAA3+P40306+A5LHX3+P49720+P28070+Q99436). Briefly: Inhibition of 20S proteasome in human HeLa cells at 2xIC50 using LLVY-R110 peptide as substrate measured up to 36 hrs by fluorescence based assay. In kind it is cell-based.
The test system of data set [3] is Candida albicans. Briefly: Induction of hyphal disruption in Candida albicans SC5314 assessed as hyphal debris at 2xMBEC by SEM analysis. The data set is classed as organism-based. Particulars: Hyphae.
Data set [4] in a line: Hemolytic activity in mouse RBC at 500 uM after 1 hr relative to control. The data set is classed as ADME, cell-based, Erythrocyte. Particulars: red blood cells (erythrocytes), read-out: Activity.
In data set [5] the target is T1, 20S proteasome (Homo sapiens). Briefly: Potency index, ratio of ixazomib IC50 to compound IC50 for inhibition of human 20S proteasome using Suc-LLVY-AMC as substrate measured every 5 mins for 120 mins by fluorescence based assay. The data set is classed as protein-complex assay.
Data set [6] has as its system Candida albicans. Briefly: Potentiation of amphotericin B-induced antifungal activity against Candida albicans SC5314 assessed as amphotericin MIC after 24 to 48 hrs by checker board assay. In kind it is functional.
In data set [7] the test system is BE(2)-C. Briefly: Induction of apoptosis in human BE(2)-C cells assessed as condensed chromatin at 2xIC50 after 24 hrs by Hoechst-33342 staining based inverted fluorescence microscopic analysis. In kind it is functional, cell-based.
Data set [8] concerns BE(2)-C. Briefly: Induction of membrane blebbing in human BE(2)-C cells at 2xIC50 after 12 hrs by SEM analysis. In kind it is cell-based. Particulars: Cell membrane.
Data set [9] concerns HeLa. Briefly: Antiproliferative activity against human HeLa cells assessed as reduction in cell viability after 48 hrs by MTT assay. In kind it is functional, cell-based. (In general: Formazan colour is commonly taken as a measure of viable cells.)
Data set [10] has as its system BE(2)-C. Briefly: Antiproliferative activity against human BE(2)-C cells assessed as cell viability at 10.3 uM after 48 hrs by MTT assay relative to control. The data set is classed as functional. Particulars: read-out: Activity.
The test system of data set [11] is Candida albicans. Briefly: Antibiofilm activity against 24 hrs preformed biofilm of Candida albicans SC5314 assessed as biofilm cell eradication at 125 uM after 24 hrs by XTT assay relative to control. The data set is classed as functional.
Data set [12] deals with BE(2)-C. Briefly: Induction of apoptosis in human BE(2)-C cells assessed as necrotic cells at 2xIC50 after 24 hrs by Alexa flour 488 annexin V/PI- staining based flow cytometric analysis relative to control. In kind it is functional.
Data set [13] concerns HeLa. Briefly: Antiproliferative activity against human HeLa cells assessed as cell viability at 10.2 uM in presence of 6.3 uM cisplatin after 48 hrs by MTT assay relative to control. The data set is classed as functional.
The test system of data set [14] is HeLa. Briefly: Antiproliferative activity against human HeLa cells assessed as cell viability at 10.2 uM after 48 hrs by MTT assay relative to control. In kind it is functional. Particulars: read-out: Activity.
Data set [15] deals with BE(2)-C. Briefly: Induction of apoptosis in human BE(2)-C cells at 2xIC50 after 24 hrs by Annexin-V alexa fluor 488/PI staining based fluorescence microscopic analysis. In kind it is functional, cell-based.
Data set [16] deals with BE(2)-C. Briefly: Synergistic antiproliferative activity against human BE(2)-C cells assessed as FICI in presence of cisplatin after 48 hrs by MTT assay. The data set is classed as functional.
For data set [17], the system named is HeLa. Briefly: Antiproliferative activity against human HeLa cells assessed as reduction in cell viability in presence of cisplatin after 48 hrs by MTT assay. The data set is classed as functional, cell-based.
In data set [18] the target is T1, 20S proteasome (Homo sapiens). Briefly: Inhibition of 20S proteasome in human BE(2)-C cells at 2xIC50 using LLVY-R110 peptide as substrate measured up to 36 hrs by fluorescence based assay. In kind it is cell-based.
Data set [19] relates to BE(2)-C. Briefly: Antiproliferative activity against human BE(2)-C cells assessed as cell viability at 10.3 uM in presence of 5.3 uM cisplatin after 48 hrs by MTT assay relative to control. The data set is classed as functional.
For data set [20], the system named is BE(2)-C. Briefly: Induction of apoptosis in human BE(2)-C cells assessed as DNA damage at 2xIC50 after 24 hrs by SYTO9/PI-staining based inverted fluorescence microscopic analysis. In kind it is functional, cell-based.
The subject of data set [21] is BE(2)-C. Briefly: Antiproliferative activity against human BE(2)-C cells assessed as cell viability at 4.7 uM after 48 hrs by MTT assay relative to control. In kind it is functional. The following applies: read-out: Activity.
For data set [22], the system named is HeLa. Briefly: Antiproliferative activity against human HeLa cells assessed as cell viability at 4.7 uM in presence of 6.3 uM cisplatin after 48 hrs by MTT assay relative to control. The data set is classed as functional.
The subject of data set [23] is HeLa. Briefly: Antiproliferative activity against human HeLa cells assessed as cell viability at 4.7 uM after 48 hrs by MTT assay relative to control. In kind it is functional. The following applies: read-out: Activity.
Data set [24] deals with Candida albicans. Briefly: Antibiofilm activity against 24 hrs preformed biofilm of Candida albicans SC5314 assessed as biofilm cell eradication at 62.5 uM after 24 hrs by XTT assay relative to control. The data set is classed as functional.
The subject of data set [25] is BE(2)-C. Briefly: Antiproliferative activity against human BE(2)-C cells assessed as cell viability at 4.7 uM in presence of 5.3 uM cisplatin after 48 hrs by MTT assay relative to control. In kind it is functional.

For orientation: IC50 means the midpoint of a concentration-inhibition curve. By MIC is commonly meant the least concentration at which growth counts as inhibited. In the case of `CC(=O)N[C@@H](Cc1ccc(O)cc1)C(=O)NCC(=O)N[C@@H](CCCNC(=N)N)C(=O)N[C@@H](CCCCN)C(=O)N[C@@H](CCCCN)C(=O)N[C@@H](CCCNC(=N)N)C(=O)N[C@@H](CCCNC(=N)N)C(=O)N[C@@H](CCC(N)=O)C(=O)N[C@@H](CCCNC(=N)N)C(=O)N[C@@H](CCCNC(=N)N)C(=O)N[C@@H](CCCNC(=N)N)C(=O)NCC(=O)NCC(=O)NCC(=O)N[C@@H](CC(C)C)C(=O)N[C@@H](CC(C)C)C(=O)N[C@H](C=O)CC(C)C` (Ac-YGRKKRRQRRRGGGLLL-aldehyde), the Activity entry with BE(2)-C [1] was “Dose-dependent effect”; in the data set on Candida albicans [11], over 50%; with BE(2)-C [12], 64.9%; in the data set on HeLa [13] it was 14%; in the data set with BE(2)-C [19], 13%. The figures for the half-maximal inhibitory concentration (IC50) on 20S proteasome, with HeLa [9] and with HeLa [17] were 0.0025 µM, 10.2 µM and 1.9 µM, respectively. For the same molecule, the inhibition result in data set [2] and in data set [18] was “Active” in each case. For the same molecule, the result in the data set with Candida albicans [3], with BE(2)-C [7], in the data set on BE(2)-C [8], in the data set with BE(2)-C [15] and in the data set with BE(2)-C [20] was Active. Also, in data set [4], the hemolysis at 1 h, 500 µM was 1%. Further, the Ratio IC50 in data set [5] was 6. Further, the minimum inhibitory concentration (MIC) in the data set with Candida albicans [6] is 0.25 µM. The viability at 10.3 µM in the data set on BE(2)-C [10] was over 50%. In addition, the viability at 10.2 µM in the data set with HeLa [14] came out at 52%. Also, in the data set with BE(2)-C [16], the “fractional inhibitory concentration index (FICI)” value was determined as 0.79.

For `CC(=O)N[C@@H](Cc1ccc(O)cc1)C(=O)NCC(=O)N[C@@H](CCCNC(=N)N)C(=O)N[C@@H](CCCCN)C(=O)N[C@@H](CCCCN)C(=O)N[C@@H](CCCNC(=N)N)C(=O)N[C@@H](CCCNC(=N)N)C(=O)N[C@@H](CCC(N)=O)C(=O)N[C@@H](CCCNC(=N)N)C(=O)N[C@@H](CCCNC(=N)N)C(=O)N[C@@H](CCCNC(=N)N)C(=O)NCC(=O)NCC(=O)NCC(=O)N[C@@H](Cc1ccc(O)cc1)C(=O)N[C@@H](CC(C)C)C(=O)N[C@@H](Cc1ccccc1)C(=O)N[C@H](C=O)CC(C)C` (Ac-YGRKKRRQRRRGGGYLFL-aldehyde), the Activity entry in the data set with BE(2)-C [1] is “Dose-dependent effect”; with HeLa [22] it was 18%; with Candida albicans [24], over 50%; in the data set with BE(2)-C [25], 11%; in the data set with BE(2)-C [12], 65.4%. Moreover, the values for the 50% inhibitory concentration (IC50) against 20S proteasome, in the data set with HeLa [9] and in the data set on HeLa [17] were 0.00428 to 0.0043 µM, 4.7 µM and 1.16 µM, respectively. The inhibition entry in [2] and in [18] was “Active” throughout. Besides, the result with Candida albicans [3], with BE(2)-C [7], with BE(2)-C [8], with BE(2)-C [15] and in the data set with BE(2)-C [20] was Active. The hemolysis at 1 h, 500 µM in data set [4] came to 12%. Also, the Ratio IC50 in [5] stood at 4. Besides, the MIC with Candida albicans [6] turned out to be 0.25 µM. For the same molecule, the viability at 4.7 µM in the data set with BE(2)-C [21] and in the data set with HeLa [23] was over 50% each time. Further, in the data set with BE(2)-C [16], the “fractional inhibitory concentration index (FICI)” value is 0.49.
